Key:
Test in all cases: Kinase profiling in a biochemical assay panel (mobility shift assays and ELISA), %-inhibition at 1 μM; selectivity entropy
[1] = biological target: panel of more than 300 wild-type and mutant kinases (313 kinase panel) (Homo sapiens, UniProt P05129); conditions: kinase PKCγ; 1 μM
[2] = biological target: panel of more than 300 wild-type and mutant kinases (313 kinase panel) (Homo sapiens, UniProt Q13233); conditions: kinase MAP3K1; compound at 1 μM
[3] = biological target: T1, panel of more than 300 wild-type and mutant kinases (313 kinase panel) (Homo sapiens, UniProt Q15831); conditions: kinase LKB1; compound at 1 μM
T1 sequence (Q15831 1-433): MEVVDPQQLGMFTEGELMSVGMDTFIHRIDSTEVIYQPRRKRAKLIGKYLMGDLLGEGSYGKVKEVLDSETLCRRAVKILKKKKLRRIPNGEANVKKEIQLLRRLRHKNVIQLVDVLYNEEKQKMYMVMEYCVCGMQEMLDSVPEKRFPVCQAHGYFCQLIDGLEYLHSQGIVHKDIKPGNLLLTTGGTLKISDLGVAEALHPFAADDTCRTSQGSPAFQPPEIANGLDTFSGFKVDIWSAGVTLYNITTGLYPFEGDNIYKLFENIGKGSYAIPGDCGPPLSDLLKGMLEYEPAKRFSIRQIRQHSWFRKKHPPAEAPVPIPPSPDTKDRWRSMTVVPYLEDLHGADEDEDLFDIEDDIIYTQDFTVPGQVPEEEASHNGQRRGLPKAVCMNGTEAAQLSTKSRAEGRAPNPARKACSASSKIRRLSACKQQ

[4] = biological target: T2, panel of more than 300 wild-type and mutant kinases (313 kinase panel) (Homo sapiens, UniProt Q13470); conditions: kinase TNK1; 1 μM
T2 sequence (Q13470 1-666): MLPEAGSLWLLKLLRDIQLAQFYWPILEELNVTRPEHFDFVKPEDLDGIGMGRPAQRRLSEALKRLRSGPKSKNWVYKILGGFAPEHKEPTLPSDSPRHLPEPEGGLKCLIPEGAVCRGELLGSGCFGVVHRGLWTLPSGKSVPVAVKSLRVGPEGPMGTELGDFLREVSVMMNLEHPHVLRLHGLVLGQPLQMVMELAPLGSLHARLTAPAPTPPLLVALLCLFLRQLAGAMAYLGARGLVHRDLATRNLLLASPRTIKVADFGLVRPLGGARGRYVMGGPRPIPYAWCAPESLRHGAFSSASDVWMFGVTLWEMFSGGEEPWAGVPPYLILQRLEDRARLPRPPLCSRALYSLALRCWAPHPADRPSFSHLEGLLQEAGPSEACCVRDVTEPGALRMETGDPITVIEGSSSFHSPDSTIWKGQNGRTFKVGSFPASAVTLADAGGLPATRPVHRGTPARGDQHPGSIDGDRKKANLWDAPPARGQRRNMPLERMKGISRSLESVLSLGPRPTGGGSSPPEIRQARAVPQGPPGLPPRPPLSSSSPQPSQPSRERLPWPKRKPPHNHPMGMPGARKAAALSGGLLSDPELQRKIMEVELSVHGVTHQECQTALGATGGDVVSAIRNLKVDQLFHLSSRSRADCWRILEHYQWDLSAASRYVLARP

[5] = biological target: panel of more than 300 wild-type and mutant kinases (313 kinase panel) (Homo sapiens, UniProt P16234, V561D); conditions: kinase PDGFRα(V561D); 1 μM
panel of more than 300 wild-type and mutant kinases (313 kinase panel) (Homo sapiens, UniProt P16234, V561D), sequence (P16234 24-1089 V561D): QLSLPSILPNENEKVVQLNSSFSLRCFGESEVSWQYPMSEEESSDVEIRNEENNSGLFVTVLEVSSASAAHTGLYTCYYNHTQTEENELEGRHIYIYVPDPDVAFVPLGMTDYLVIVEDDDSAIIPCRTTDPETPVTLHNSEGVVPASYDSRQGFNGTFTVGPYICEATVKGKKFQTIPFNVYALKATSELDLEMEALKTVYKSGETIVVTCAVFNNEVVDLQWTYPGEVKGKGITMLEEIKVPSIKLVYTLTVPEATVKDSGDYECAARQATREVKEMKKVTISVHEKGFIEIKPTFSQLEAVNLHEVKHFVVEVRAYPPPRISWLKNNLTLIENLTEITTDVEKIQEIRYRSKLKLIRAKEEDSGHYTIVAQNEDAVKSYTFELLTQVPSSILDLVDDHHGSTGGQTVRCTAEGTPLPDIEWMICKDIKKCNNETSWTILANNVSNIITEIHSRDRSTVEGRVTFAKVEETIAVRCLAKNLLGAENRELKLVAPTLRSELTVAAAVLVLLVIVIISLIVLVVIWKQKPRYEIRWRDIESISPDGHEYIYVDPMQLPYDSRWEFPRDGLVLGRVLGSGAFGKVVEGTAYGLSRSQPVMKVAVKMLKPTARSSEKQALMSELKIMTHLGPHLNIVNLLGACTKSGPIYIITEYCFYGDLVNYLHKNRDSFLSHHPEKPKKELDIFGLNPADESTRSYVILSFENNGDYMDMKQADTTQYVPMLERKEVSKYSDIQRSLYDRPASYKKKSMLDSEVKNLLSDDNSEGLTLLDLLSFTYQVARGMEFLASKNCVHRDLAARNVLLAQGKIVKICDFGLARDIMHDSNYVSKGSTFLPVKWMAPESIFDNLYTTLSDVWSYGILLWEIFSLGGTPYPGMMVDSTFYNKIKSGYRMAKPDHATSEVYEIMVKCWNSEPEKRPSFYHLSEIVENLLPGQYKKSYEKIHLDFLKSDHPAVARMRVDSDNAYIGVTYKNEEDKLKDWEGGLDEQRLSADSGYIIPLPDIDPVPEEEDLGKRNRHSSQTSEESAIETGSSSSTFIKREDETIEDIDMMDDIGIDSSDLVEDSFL

[6] = biological target: panel of more than 300 wild-type and mutant kinases (313 kinase panel) (Homo sapiens, UniProt P22455); conditions: kinase FGFR4; compound at 1 μM
[7] = biological target: panel of more than 300 wild-type and mutant kinases (313 kinase panel) (Homo sapiens, UniProt Q9HBH9); conditions: kinase MNK2; 1 μM
[8] = biological target: panel of more than 300 wild-type and mutant kinases (313 kinase panel) (Homo sapiens, UniProt Q13557); conditions: kinase CaMK2δ; 1 μM compound
panel of more than 300 wild-type and mutant kinases (313 kinase panel) (Homo sapiens, UniProt Q13557), sequence (Q13557 whole entry, stated change not applied): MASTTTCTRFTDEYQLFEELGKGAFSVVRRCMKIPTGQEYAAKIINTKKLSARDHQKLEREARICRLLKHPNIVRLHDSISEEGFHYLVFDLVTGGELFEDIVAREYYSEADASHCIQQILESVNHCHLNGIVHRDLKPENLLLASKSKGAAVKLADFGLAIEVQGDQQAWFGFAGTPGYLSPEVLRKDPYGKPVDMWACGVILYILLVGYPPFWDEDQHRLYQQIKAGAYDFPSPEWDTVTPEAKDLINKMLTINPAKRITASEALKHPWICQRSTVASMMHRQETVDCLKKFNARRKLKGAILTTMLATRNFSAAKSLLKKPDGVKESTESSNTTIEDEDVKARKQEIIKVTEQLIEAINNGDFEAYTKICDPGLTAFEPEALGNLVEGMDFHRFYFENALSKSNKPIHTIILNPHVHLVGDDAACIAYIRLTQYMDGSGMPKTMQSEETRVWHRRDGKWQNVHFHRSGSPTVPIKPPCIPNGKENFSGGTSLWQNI

[9] = biological target: panel of more than 300 wild-type and mutant kinases (313 kinase panel) (Homo sapiens, UniProt Q5VT25); conditions: kinase MRCKα; 1 μM
[10] = biological target: panel of more than 300 wild-type and mutant kinases (313 kinase panel) (Homo sapiens, UniProt P11362); conditions: kinase FGFR1; compound at 1 μM
panel of more than 300 wild-type and mutant kinases (313 kinase panel) (Homo sapiens, UniProt P11362), sequence (P11362 22-822, change not shown): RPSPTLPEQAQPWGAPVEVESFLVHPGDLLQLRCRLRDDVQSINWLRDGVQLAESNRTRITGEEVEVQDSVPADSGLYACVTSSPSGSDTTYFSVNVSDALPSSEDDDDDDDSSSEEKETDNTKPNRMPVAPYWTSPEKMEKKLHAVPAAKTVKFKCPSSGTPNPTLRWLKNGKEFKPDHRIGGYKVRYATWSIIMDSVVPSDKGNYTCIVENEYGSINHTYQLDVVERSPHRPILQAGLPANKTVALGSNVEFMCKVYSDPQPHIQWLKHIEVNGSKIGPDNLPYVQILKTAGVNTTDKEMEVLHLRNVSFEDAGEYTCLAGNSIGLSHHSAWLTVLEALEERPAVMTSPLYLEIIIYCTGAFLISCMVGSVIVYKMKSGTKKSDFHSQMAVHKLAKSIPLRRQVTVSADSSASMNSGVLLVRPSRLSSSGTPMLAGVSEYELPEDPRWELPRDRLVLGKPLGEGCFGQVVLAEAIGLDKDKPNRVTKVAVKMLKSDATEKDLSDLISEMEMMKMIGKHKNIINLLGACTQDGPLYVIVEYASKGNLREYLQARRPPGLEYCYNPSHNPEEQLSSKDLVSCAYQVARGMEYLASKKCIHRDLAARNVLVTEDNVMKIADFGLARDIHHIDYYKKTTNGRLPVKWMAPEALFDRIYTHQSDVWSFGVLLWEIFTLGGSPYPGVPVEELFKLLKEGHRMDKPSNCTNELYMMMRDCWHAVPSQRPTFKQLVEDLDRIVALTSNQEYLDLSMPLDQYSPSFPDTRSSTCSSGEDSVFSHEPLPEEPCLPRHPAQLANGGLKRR

[11] = biological target: panel of more than 300 wild-type and mutant kinases (313 kinase panel) (Homo sapiens, UniProt P24941); conditions: 1 μM compound; for %-inhibition, CDK2/CycA2: kinase CDK2/CycA2; for %-inhibition, CDK2/CycE1: kinase CDK2/CycE1

panel of more than 300 wild-type and mutant kinases (313 kinase panel) (Homo sapiens, UniProt Q13233), sequence (Q13233 whole entry, change not shown): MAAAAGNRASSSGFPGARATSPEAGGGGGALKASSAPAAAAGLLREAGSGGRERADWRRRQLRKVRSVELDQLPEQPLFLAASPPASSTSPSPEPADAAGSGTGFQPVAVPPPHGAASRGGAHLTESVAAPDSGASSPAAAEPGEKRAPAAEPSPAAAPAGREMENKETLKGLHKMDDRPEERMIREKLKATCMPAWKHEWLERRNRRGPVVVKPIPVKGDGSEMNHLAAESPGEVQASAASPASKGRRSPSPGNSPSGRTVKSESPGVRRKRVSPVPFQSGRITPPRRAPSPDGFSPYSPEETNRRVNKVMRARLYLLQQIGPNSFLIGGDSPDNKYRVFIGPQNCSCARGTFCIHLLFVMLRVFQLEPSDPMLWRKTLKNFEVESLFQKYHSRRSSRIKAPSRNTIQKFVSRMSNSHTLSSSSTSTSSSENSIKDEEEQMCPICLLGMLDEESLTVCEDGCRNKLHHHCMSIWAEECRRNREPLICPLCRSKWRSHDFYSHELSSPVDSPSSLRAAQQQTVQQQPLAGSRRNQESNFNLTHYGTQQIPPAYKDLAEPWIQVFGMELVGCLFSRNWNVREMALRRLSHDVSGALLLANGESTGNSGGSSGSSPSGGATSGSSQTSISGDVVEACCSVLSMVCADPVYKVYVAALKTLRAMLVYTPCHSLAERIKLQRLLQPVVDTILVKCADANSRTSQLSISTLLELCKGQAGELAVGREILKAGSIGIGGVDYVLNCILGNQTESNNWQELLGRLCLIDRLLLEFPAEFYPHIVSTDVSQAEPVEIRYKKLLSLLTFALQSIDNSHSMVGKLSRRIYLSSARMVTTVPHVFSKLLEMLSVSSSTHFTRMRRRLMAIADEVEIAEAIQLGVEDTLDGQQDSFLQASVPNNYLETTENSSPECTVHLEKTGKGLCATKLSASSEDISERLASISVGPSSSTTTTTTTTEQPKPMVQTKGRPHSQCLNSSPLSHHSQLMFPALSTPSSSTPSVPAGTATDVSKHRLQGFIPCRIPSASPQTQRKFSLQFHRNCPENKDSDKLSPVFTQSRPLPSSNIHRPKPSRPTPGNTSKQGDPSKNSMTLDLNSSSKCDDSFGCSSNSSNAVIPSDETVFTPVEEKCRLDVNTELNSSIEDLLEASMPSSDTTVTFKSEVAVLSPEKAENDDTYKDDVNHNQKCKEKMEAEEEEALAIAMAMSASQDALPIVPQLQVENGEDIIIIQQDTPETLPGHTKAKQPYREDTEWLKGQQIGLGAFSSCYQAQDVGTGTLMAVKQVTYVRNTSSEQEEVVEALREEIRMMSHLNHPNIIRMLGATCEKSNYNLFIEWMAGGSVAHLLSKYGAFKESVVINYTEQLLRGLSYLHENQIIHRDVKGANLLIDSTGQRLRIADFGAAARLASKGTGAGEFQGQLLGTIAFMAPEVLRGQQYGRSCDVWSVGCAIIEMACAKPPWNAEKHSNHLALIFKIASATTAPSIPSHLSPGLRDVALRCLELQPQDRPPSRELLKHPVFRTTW

## CN(C)C/C=C/C(=O)Nc1cc2c(Nc3ccc(F)c(Cl)c3)ncnc2cc1O[C@H]1CCOC1 [afatinib]
[1]
  %-inhibition of PKCγ: 3%

## COc1cc(Nc2c(C#N)cnc3cc(OCCCN4CCN(C)CC4)c(OC)cc23)c(Cl)cc1Cl [bosutinib]
[1]
  %-inhibition of PKCγ: 12%
[2]
  %-inhibition of MAP3K1: 60%
[3]
  %-inhibition of LKB1: -5.27%
[4]
  %-inhibition of TNK1: 11%
[5]
  %-inhibition of PDGFRα(V561D): 64%
[6]
  %-inhibition of FGFR4: 2.67%
[7]
  %-inhibition of MNK2: -2%

## CC(C)(C)c1nc(-c2cccc(NS(=O)(=O)c3c(F)cccc3F)c2F)c(-c2ccnc(N)n2)s1 [dabrafenib]
[1]
  %-inhibition of PKCγ: -0.381%
[2]
  %-inhibition of MAP3K1: -40%
[3]
  %-inhibition of LKB1: 4.34%
[8]
  %-inhibition, CaMK2δ: -0.23%
[9]
  %-inhibition of MRCKα: -1.84%
[4]
  %-inhibition of TNK1: 100%
[5]
  %-inhibition of PDGFRα(V561D): 51%
[6]
  %-inhibition of FGFR4: 19%
[10]
  %-inhibition of FGFR1: 10%

## Cc1nc(Nc2ncc(C(=O)Nc3c(C)cccc3Cl)s2)cc(N2CCN(CCO)CC2)n1 [dasatinib]
[11]
  %-inhibition, CDK2/CycA2: 5%
  %-inhibition, CDK2/CycE1: 12%
[3]
  %-inhibition of LKB1: 0.734%
[8]
  %-inhibition, CaMK2δ: -7.61%
[4]
  %-inhibition of TNK1: 4.31%

## O=S(=O)(c1cccc2cnccc12)N1CCCNCC1 [fasudil]
[1]
  %-inhibition of PKCγ: 10%
[11]
  %-inhibition, CDK2/CycA2: 22%
  %-inhibition, CDK2/CycE1: 13%
[2]
  %-inhibition of MAP3K1: 1.37%
[3]
  %-inhibition of LKB1: 6%
[8]
  %-inhibition, CaMK2δ: 3.46%
[9]
  %-inhibition of MRCKα: -2.54%
[5]
  %-inhibition of PDGFRα(V561D): 9%
[7]
  %-inhibition of MNK2: 12%
[10]
  %-inhibition of FGFR1: -0.145%

## Cc1ccc(Nc2nccc(N(C)c3ccc4c(C)n(C)nc4c3)n2)cc1S(N)(=O)=O [pazopanib]
[1]
  %-inhibition of PKCγ: 9%
[11]
  %-inhibition, CDK2/CycA2: -5%
  %-inhibition, CDK2/CycE1: -0.507%
[2]
  %-inhibition of MAP3K1: 37%
[3]
  %-inhibition of LKB1: 28%
[8]
  %-inhibition, CaMK2δ: 1.54%
[9]
  %-inhibition of MRCKα: -2.17%
[4]
  %-inhibition of TNK1: 42%
[7]
  %-inhibition of MNK2: 2.27%

## CNC(=O)c1cc(Oc2ccc(NC(=O)Nc3ccc(Cl)c(C(F)(F)F)c3)c(F)c2)ccn1 [regorafenib]
[1]
  %-inhibition of PKCγ: -8%
[11]
  %-inhibition, CDK2/CycA2: -12%
  %-inhibition, CDK2/CycE1: -2.7%
[2]
  %-inhibition of MAP3K1: 4%
[3]
  %-inhibition of LKB1: -5%
[8]
  %-inhibition, CaMK2δ: 1.53%
[9]
  %-inhibition of MRCKα: -5%
[4]
  %-inhibition of TNK1: 47%
[5]
  %-inhibition of PDGFRα(V561D): 101%
[6]
  %-inhibition of FGFR4: 33%
[7]
  %-inhibition of MNK2: 73%

## CCN(CC)CCNC(=O)c1c(C)[nH]c(/C=C2\C(=O)Nc3ccc(F)cc32)c1C [sunitinib]
[1]
  %-inhibition of PKCγ: 17%
[3]
  %-inhibition of LKB1: 11%

## COc1cc2c(Nc3ccc(Br)cc3F)ncnc2cc1OCC1CCN(C)CC1 [vandetanib]
[1]
  %-inhibition of PKCγ: -5%
[11]
  %-inhibition, CDK2/CycA2: -8%
  %-inhibition, CDK2/CycE1: -21%
[2]
  %-inhibition of MAP3K1: -7.43%
[3]
  %-inhibition of LKB1: -4.54%
[8]
  %-inhibition, CaMK2δ: 10%
[9]
  %-inhibition of MRCKα: -6%
[4]
  %-inhibition of TNK1: 23%
[5]
  %-inhibition of PDGFRα(V561D): 100%
[6]
  %-inhibition of FGFR4: 31%
